In PubChem BioAssay (NCI):
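Compound exposure: 48 hours, 5 concentrations, 96-well plates. GI50 = concentration required for 50% inhibition of growth. Definition used: TGI = concentration required for complete inhibition of growth.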

Tests used:
Assay in all cases: NCI anticancer screen, dose series, 48 h
[1] = test system: 786-0 renal
[2] = test system: A498 renal
[3] = test system: A549 NSCLC
[4] = test system: ACHN renal
[5] = test system: BT-549 breast
[6] = test system: CAKI-1 renal
[7] = test system: CCRF-CEM leukemia
[8] = test system: COLO 205 colon
[9] = test system: DU-145 prostate
[10] = test system: EKVX NSCLC
[11] = test system: HCC-2998 colon
[12] = test system: HCT-116 colon
[13] = test system: HCT-15 colon
[14] = test system: HL-60(TB) leukemia
[15] = test system: HOP-62 NSCLC
[16] = test system: HOP-92 NSCLC
[17] = test system: HS 578T breast
[18] = test system: HT29 colon
[19] = test system: IGROV1 ovarian
[20] = test system: K-562 leukemia
[21] = test system: KM12 colon
[22] = test system: LOX IMVI melanoma
[23] = test system: M14 melanoma
[24] = test system: MALME-3M melanoma
[25] = test system: MCF7 breast
[26] = test system: MDA-MB-231 breast
[27] = test system: MDA-MB-435
[28] = test system: MDA-MB-468 breast
[29] = test system: MOLT-4 leukemia
[30] = test system: NCI-H226 lung
[31] = test system: NCI-H23 lung
[32] = test system: NCI-H460 lung
[33] = test system: NCI-H522 lung
[34] = test system: OVCAR-3 ovarian
[35] = test system: OVCAR-4 ovarian
[36] = test system: OVCAR-5 ovarian
[37] = test system: OVCAR-8 ovarian
[38] = test system: PC-3 prostate
[39] = test system: RPMI-8226 leukemia
[40] = test system: RXF 393 renal
[41] = test system: SF-268 CNS
[42] = test system: SF-295 CNS
[43] = test system: SF-539 CNS
[44] = test system: SK-MEL-2 melanoma
[45] = test system: SK-MEL-28 melanoma
[46] = test system: SK-MEL-5 melanoma
[47] = test system: SK-OV-3 ovarian
[48] = test system: SN12C renal
[49] = test system: SNB-19 CNS
[50] = test system: SNB-75 CNS
[51] = test system: SR leukemia
[52] = test system: SW-620 colon
[53] = test system: T-47D breast
[54] = test system: TK-10 renal
[55] = test system: U251 CNS
[56] = test system: UACC-257 melanoma
[57] = test system: UACC-62 melanoma
[58] = test system: UO-31 renal

Q: For O=C(O)c1ccc(-c2ccc(/C=N/NC(=O)c3[nH]c4ccc(Br)cc4c3-c3ccccc3)o2)cc1, which GI50 [1] is on record?
A: 24.2 µM

Q: And the TGI [1]?
A: > 100 µM

Q: And the GI50 [2]?
A: 23.6 µM

Q: What about the TGI [2] of the same compound?
A: 85.7 µM

Q: What about the GI50 [3] of the same compound?
A: 32.3 µM

Q: And the TGI [3]?
A: > 100 µM

Q: And the GI50 [4]?
A: 29.3 µM

Q: What about the TGI [4] of the same compound?
A: > 100 µM

Q: What about the GI50 [5] of the same compound?
A: 20.1 µM

Q: What about the TGI [5] of the same compound?
A: 51.7 µM

Q: What about the GI50 [6] of the same compound?
A: 22 µM

Q: And the TGI [6]?
A: 98.7 µM

Q: And the GI50 [7]?
A: 19.3 µM

Q: And the TGI [7]?
A: > 100 µM

Q: And the GI50 [8]?
A: 26.4 µM

Q: And the TGI [8]?
A: 83.8 µM

Q: And the GI50 [9]?
A: 36.4 µM

Q: And the TGI [9]?
A: > 100 µM

Q: And the GI50 [10]?
A: 28.8 µM

Q: What about the TGI [10] of the same compound?
A: > 100 µM

Q: And the GI50 [11]?
A: 16.1 µM

Q: What about the TGI [11] of the same compound?
A: 30.7 µM

Q: And the GI50 [12]?
A: 27.7 µM

Q: What about the TGI [12] of the same compound?
A: > 100 µM

Q: What about the GI50 [13] of the same compound?
A: 18.6 µM

Q: And the TGI [13]?
A: > 100 µM

Q: What about the GI50 [14] of the same compound?
A: 12.4 µM

Q: What about the TGI [14] of the same compound?
A: 36.1 µM

Q: And the GI50 [15]?
A: 29.5 µM

Q: And the TGI [15]?
A: > 100 µM

Q: What about the GI50 [16] of the same compound?
A: 10.6 µM

Q: And the TGI [16]?
A: 42.2 µM

Q: What about the GI50 [17] of the same compound?
A: 3.87 µM

Q: And the TGI [17]?
A: 72 µM

Q: What about the GI50 [18] of the same compound?
A: 21.9 µM

Q: And the TGI [18]?
A: 54.7 µM

Q: What about the GI50 [19] of the same compound?
A: 25.3 µM

Q: And the TGI [19]?
A: 86.1 µM

Q: And the GI50 [20]?
A: 20.8 µM

Q: What about the TGI [20] of the same compound?
A: 98.4 µM

Q: What about the GI50 [21] of the same compound?
A: 22.4 µM

Q: What about the TGI [21] of the same compound?
A: 66.2 µM

Q: What about the GI50 [22] of the same compound?
A: 20 µM

Q: And the TGI [22]?
A: > 100 µM

Q: What about the GI50 [23] of the same compound?
A: 29.8 µM

Q: What about the TGI [23] of the same compound?
A: > 100 µM

Q: And the GI50 [24]?
A: 19.1 µM

Q: What about the TGI [24] of the same compound?
A: > 100 µM

Q: What about the GI50 [25] of the same compound?
A: 28.3 µM

Q: And the TGI [25]?
A: > 100 µM

Q: And the GI50 [26]?
A: 27.9 µM

Q: And the TGI [26]?
A: > 100 µM

Q: And the GI50 [27]?
A: 12.5 µM

Q: And the TGI [27]?
A: 41.1 µM

Q: What about the GI50 [28] of the same compound?
A: 19.5 µM

Q: And the TGI [28]?
A: 79.6 µM

Q: And the GI50 [29]?
A: 20.3 µM

Q: And the TGI [29]?
A: 96.6 µM

Q: And the GI50 [30]?
A: 34.5 µM

Q: What about the TGI [30] of the same compound?
A: > 100 µM

Q: And the GI50 [31]?
A: 34.1 µM

Q: And the TGI [31]?
A: > 100 µM

Q: What about the GI50 [32] of the same compound?
A: 21.3 µM

Q: What about the TGI [32] of the same compound?
A: 72.8 µM

Q: And the GI50 [33]?
A: 7.64 µM

Q: And the TGI [33]?
A: 34.4 µM

Q: And the GI50 [34]?
A: 12.2 µM

Q: And the TGI [34]?
A: 43.1 µM

Q: And the GI50 [35]?
A: 21.1 µM

Q: And the TGI [35]?
A: > 100 µM

Q: What about the GI50 [36] of the same compound?
A: 36.5 µM

Q: What about the TGI [36] of the same compound?
A: > 100 µM

Q: What about the GI50 [37] of the same compound?
A: 20.7 µM

Q: And the TGI [37]?
A: 63.4 µM

Q: And the GI50 [38]?
A: 25.1 µM

Q: And the TGI [38]?
A: > 100 µM

Q: And the GI50 [39]?
A: 25.9 µM

Q: What about the TGI [39] of the same compound?
A: > 100 µM

Q: And the GI50 [40]?
A: 11.3 µM

Q: What about the TGI [40] of the same compound?
A: 95.1 µM

Q: What about the GI50 [41] of the same compound?
A: 20.8 µM

Q: What about the TGI [41] of the same compound?
A: > 100 µM

Q: What about the GI50 [42] of the same compound?
A: 20.4 µM

Q: What about the TGI [42] of the same compound?
A: 55.8 µM

Q: What about the GI50 [43] of the same compound?
A: 14.7 µM

Q: And the TGI [43]?
A: 36.7 µM

Q: What about the GI50 [44] of the same compound?
A: 14.6 µM

Q: What about the TGI [44] of the same compound?
A: 37.3 µM

Q: And the GI50 [45]?
A: 15.8 µM

Q: And the TGI [45]?
A: > 100 µM

Q: What about the GI50 [46] of the same compound?
A: 15.7 µM

Q: And the TGI [46]?
A: 33 µM

Q: And the GI50 [47]?
A: 28.3 µM

Q: What about the TGI [47] of the same compound?
A: 76.7 µM

Q: And the GI50 [48]?
A: 24.8 µM

Q: And the TGI [48]?
A: 80.8 µM

Q: And the GI50 [49]?
A: 21.6 µM

Q: What about the TGI [49] of the same compound?
A: > 100 µM

Q: And the GI50 [50]?
A: 4.02 µM

Q: What about the TGI [50] of the same compound?
A: 33.3 µM

Q: What about the GI50 [51] of the same compound?
A: 11.8 µM

Q: And the TGI [51]?
A: 45.6 µM

Q: What about the GI50 [52] of the same compound?
A: 25.4 µM

Q: What about the TGI [52] of the same compound?
A: > 100 µM

Q: What about the GI50 [53] of the same compound?
A: 30.9 µM

Q: And the TGI [53]?
A: > 100 µM

Q: What about the GI50 [54] of the same compound?
A: 38.7 µM

Q: And the TGI [54]?
A: > 100 µM

Q: What about the GI50 [55] of the same compound?
A: 20 µM

Q: And the TGI [55]?
A: 83.1 µM

Q: What about the GI50 [56] of the same compound?
A: 24.5 µM

Q: And the TGI [56]?
A: > 100 µM

Q: What about the GI50 [57] of the same compound?
A: 4.98 µM

Q: And the TGI [57]?
A: 25.2 µM

Q: What about the GI50 [58] of the same compound?
A: 25 µM

Q: What about the TGI [58] of the same compound?
A: > 100 µM
